According to paper PMC10215355, “Chemical Composition of the Cinnamomum malabatrum Leaf Essential Oil and Analysis of Its Antioxidant, Enzyme Inhibitory and Antibacterial Activities” (Antibiotics, 2023):
≈ marks a conversion by molar mass, not a printed value.

Key:
sorbitol dehydrogenase = molecular target: T1, sorbitol dehydrogenase (Homo sapiens, UniProt Q00796); assay: Sorbitol dehydrogenase inhibition; assay type: biochemical; conditions: 0–100 μg/mL
T1 sequence (Q00796 1-357): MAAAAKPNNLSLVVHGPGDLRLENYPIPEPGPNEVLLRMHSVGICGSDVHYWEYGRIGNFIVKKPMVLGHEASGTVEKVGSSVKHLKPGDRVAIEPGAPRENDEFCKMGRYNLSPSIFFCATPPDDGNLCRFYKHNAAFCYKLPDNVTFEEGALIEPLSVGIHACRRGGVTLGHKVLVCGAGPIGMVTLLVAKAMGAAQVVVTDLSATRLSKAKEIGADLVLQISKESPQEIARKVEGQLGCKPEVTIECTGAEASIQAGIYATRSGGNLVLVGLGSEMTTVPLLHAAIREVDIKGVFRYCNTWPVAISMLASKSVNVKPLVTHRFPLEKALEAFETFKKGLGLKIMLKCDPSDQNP

ABTS radical scavenging = conditions: 0 to 100 µg/mL series
Description: (§1) The concentration of essential oil used was a different series from 0 to 100 μg/mL for each radical quenching assay. The quenching of DPPH radicals was analyzed using the methods of [70]. The ABTS radicals scavenging activity was analyzed according to the methods of Li et al.. The hydrogen peroxide quenching potential of the essential oil was following the methods of Munteanu and […] [72]. The ferric-reducing abilities of the essential oil were estimated according to the methods described by He et al.. The methods described by Okoh et al.

aldose reductase = aldose reductase (Homo sapiens, UniProt P15121); assay: Aldose reductase inhibition; assay type: biochemical; conditions: 0–100 μg/mL
[1] = Lipid peroxidation inhibition (ex vivo); conditions: 0 to 100 µg/mL series
Description: as §1

DPPH radical scavenging = conditions: 0 to 100 µg/mL series
Description: as §1

α-amylase = assay: α-Amylase inhibition; assay type: biochemical; conditions: 0–100 μg/mL
[2] = H2O2 radical scavenging (hydrogen peroxide quenching); conditions: 0 to 100 µg/mL series
Description: as §1

α-glucosidase = assay: α-Glucosidase inhibition; conditions: 0–100 μg/mL
Description: The enzyme-inhibitory potential of the essential oil was evaluated by mixing different concentrations (0–100 μg/mL) against the respective enzymes and their substrates. The enzyme activities will be estimated in terms of the substrate utilized after incubation. The inhibition of α-amylase [75], α-glucosidase [76], aldose reductase [77] and sorbitol dehydrogenase [78] was carried out according to the methods previously described.

Staphylococcus aureus [3] = assay: Disc diffusion method; assay type: cell-based; conditions: 8 mm disc, 10 μL oil, 24 h
Escherichia coli [4] = assay: Minimum inhibitory concentration (96-well, TTC); assay type: cell-based
Pseudomonas aeruginosa [5] = assay: Minimum inhibitory concentration (96-well, TTC); assay type: cell-based
Salmonella enterica [6] = assay: Disc diffusion method; assay type: cell-based; conditions: 8 mm disc, 10 μL oil, 24 h
From the text: (§2) The bacteria were procured from Microbial Type Culture Collection and Gene Bank (MTCC), Chandigarh and maintained under standard conditions as prescribed by Bonnet, et al.. The bacterial strains used include Escherichia coli, Pseudomonas aeruginosa, Staphylococcus aureus, Bacillus cereus, Streptococcus pyogenes and Salmonella enterica.
Initially, the bacteria cultured were completed in Luria-Bertani broth; for the antibacterial study, the inoculum of the bacteria was made on a Mueller Hinton Agar (MHA) agar plate (Himedia, Mumbai, Maharashtra, India) at a thickness of 5 mm. Later, a filter paper disc (8 mm in diameter) containing the leaf essential oil of C. malabatrum (10 μL) was placed in the agar plate at a distance of 50 mm. At the end of 24 h, the formation of the growth inhibition zone was estimated.

Bacillus cereus [7] = assay: Disc diffusion method; assay type: cell-based; conditions: 8 mm disc, 10 μL oil, 24 h
Escherichia coli [8] = assay: Disc diffusion method; assay type: cell-based; conditions: 8 mm disc, 10 μL oil, 24 h
Staphylococcus aureus [9] = assay: Minimum inhibitory concentration (96-well, TTC); assay type: cell-based
Streptococcus pyogenes [10] = assay: Minimum inhibitory concentration (96-well, TTC); assay type: cell-based
Salmonella enterica [11] = assay: Minimum inhibitory concentration (96-well, TTC); assay type: cell-based
From the text: as §2
The determination of the MIC value was made according to the methods described by Campana, et al.. Before beginning, the density of the inoculum was spectrophotometrically set to 5 × 10^5 CFU/mL. From this, about 50 µL was transferred to individual wells of a 96-well plate containing different concentrations of C. malabatrum essential oil. Later, 2,3,5-triphenyltetrazolium chloride (10 µL) was added to each well; the pink color of the 2,3,5-triphenyltetrazolium chloride was lost in the absence of bacterial growth. The MIC value was considered as the lowest concentration without a detectable pink color.

Streptococcus pyogenes [12] = assay: Disc diffusion method; assay type: cell-based; conditions: 8 mm disc, 10 μL oil, 24 h
Bacillus cereus [13] = assay: Minimum inhibitory concentration (96-well, TTC); assay type: cell-based
Pseudomonas aeruginosa [14] = assay: Disc diffusion method; assay type: cell-based; conditions: 8 mm disc, 10 μL oil, 24 h
[15] = Ferric-reducing potential (FRAP); conditions: 0 to 100 µg/mL series
Description: as §1

Structure (SMILES) | IC50 (sorbitol dehydrogenase) [µM] | ABTS radical scavenging IC50 (ABTS radical scavenging) [mg/L] | IC50 (aldose reductase) [µM] | Lipid peroxidation inhibition IC50 [1] [mg/L] | DPPH radical scavenging IC50 (DPPH radical scavenging) [mg/L] | α-Amylase inhibition IC50 (α-amylase) [mg/L] | H2O2 radical scavenging IC50 [2] [mg/L] | α-Glucosidase inhibition IC50 (α-glucosidase) [mg/L] | Zone of Inhibition (Staphylococcus aureus [3]) [mm] | MIC (Escherichia coli [4]) [mg/L] | MIC (Pseudomonas aeruginosa [5]) [mg/L] | Zone of Inhibition (Salmonella enterica [6]) [mm] | Zone of Inhibition (Bacillus cereus [7]) [mm] | Zone of Inhibition (Escherichia coli [8]) [mm] | MIC (Staphylococcus aureus [9]) [mg/L] | MIC (Streptococcus pyogenes [10]) [mg/L] | MIC (Salmonella enterica [11]) [mg/L] | Zone of Inhibition (Streptococcus pyogenes [12]) [mm] | MIC (Bacillus cereus [13]) [mg/L] | other results
O=C1O[C@H]([C@@H](O)CO)C(O)=C1O [Ascorbic Acid] | 341 | 12.82 ± 0.40 | 163 | 63.02 ± 0.33 | 8.13 ± 0.09 | 45.17 ± 2.36 | 19.11 ± 0.26 | 36.03 ± 1.98 |  |  |  |  |  |  |  |  |  |  |  | 
CNC(C)C1CCC(N)C(OC2C(N)CC(N)C(OC3OCC(C)(O)C(NC)C3O)C2O)O1 (stereo not shown) [GM, gentamicin] |  |  |  |  |  |  |  |  | 18.5 ± 0.5 | 325 (≈ 680 µM) | 167 (≈ 350 µM) | 19.9 ± 0.3 | 21.3 ± 0.5 | 21.3 ± 0.3 | 325 (≈ 680 µM) | 167 (≈ 350 µM) | 167 (≈ 350 µM) | 19.2 ± 0.7 | 325 (≈ 680 µM) | 
C=CC(C)(O)CCC=C(C)C (stereo not shown) [Linalool] | 573 | 40.01 ± 1.33 | 383 | 78.49 ± 3.07 | 35.22 ± 0.11 | 62.34 ± 2.91 | 38.09 ± 2.45 | 30.93 ± 3.41 | 18.1 ± 0.2 | 625 ± 50 (≈ 4050 µM) | 325 ± 100 (≈ 2110 µM) | 16.8 ± 0.3 | 17.6 ± 0.3 | 17.8 ± 0.1 | 325 (≈ 2110 µM) | 325 (≈ 2110 µM) | 325 (≈ 2110 µM) | 17.9 ± 0.1 | 625 ± 100 (≈ 4050 µM) | Zone of Inhibition (Pseudomonas aeruginosa [14]): 19.3 ± 0.2 mm; Ferric-reducing potential IC50 [15]: 35.93 ± 0.24 mg/L
